Here are results for 14 molecules from ChEMBL document CHEMBL3044662, “Synthesis and potential antibacterial activity of new rhodanine-3-acetic acid derivatives” (2013).

Molecules are shown by their SMILES. Values after ≈ are worked out from the molar mass of the structure shown. Some results are limits rather than exact numbers.

Common to all, as to assay type: functional
The subject of experiment [1] is Staphylococcus aureus. Put plainly: Antibacterial activity against Staphylococcus aureus KCTC 503 assessed as growth inhibition after 20 hr by two-fold serial dilution method. The following applies: KCTC 503, 20 h.
In experiment [2] the test system is Staphylococcus aureus. Kind of experiment: Antibacterial activity against Staphylococcus aureus subsp. aureus RN4220 assessed as growth inhibition after 20 hr by two-fold serial dilution method. The conditions noted are these: RN4220, 20 h.
Experiment [3] relates to Escherichia coli. Kind of experiment: Antibacterial activity against Escherichia coli CCARM 1356 assessed as growth inhibition after 20 hr by two-fold serial dilution method. The conditions noted are these: CCARM 1356, 20 h.
Experiment [4] concerns Escherichia coli. Put plainly: Antibacterial activity against Escherichia coli CCARM 1924 assessed as growth inhibition after 20 hr by two-fold serial dilution method. The following applies: CCARM 1924, 20 h.
Experiment [5] concerns Staphylococcus aureus. Put plainly: Antibacterial activity against quinolene-resistant Staphylococcus aureus CCARM 3519 clinical isolate assessed as growth inhibition after 20 hr by two-fold serial dilution method. The following applies: CCARM 3519, 20 h.
The test system of experiment [6] is Staphylococcus aureus. Put plainly: Antibacterial activity against methicillin-resistant Staphylococcus aureus CCARM 3506 clinical isolate assessed as growth inhibition after 20 hr by two-fold serial dilution method. The following applies: CCARM 3506, 20 h.
The test system of experiment [7] is Staphylococcus aureus. Put plainly: Antibacterial activity against methicillin-resistant Staphylococcus aureus CCARM 3167 clinical isolate assessed as growth inhibition after 20 hr by two-fold serial dilution method. The conditions noted are these: CCARM 3167, 20 h.
For experiment [8], the system named is Staphylococcus aureus. Put plainly: Antibacterial activity against quinolene-resistant Staphylococcus aureus CCARM 3505 clinical isolate assessed as growth inhibition after 20 hr by two-fold serial dilution method. The following applies: CCARM 3505, 20 h.

What is called MIC is the lowest concentration that inhibits growth of the organism. In the case of `COc1cccc(COc2ccc3cc(/C=C4\SC(=S)N(CC(=O)O)C4=O)ccc3c2)c1`, the MIC in the experiment on Staphylococcus aureus [1], in the experiment with Staphylococcus aureus [2], with Escherichia coli [3] and in the experiment with Escherichia coli [4] was greater than 64 µg/mL in each case.

Regarding `O=C(O)CN1C(=O)/C(=C/c2ccc3cc(OCc4ccc(F)cc4)ccc3c2)SC1=S`, the MIC in the experiment with Staphylococcus aureus [1] is 4 µg/mL (≈ 8.82 µM); in the experiment with Staphylococcus aureus [2] it was 4 µg/mL (≈ 8.82 µM); in the experiment with Escherichia coli [3] it was greater than 64 µg/mL; in the experiment on Staphylococcus aureus [5], 4 µg/mL (≈ 8.82 µM); with Staphylococcus aureus [6], 2 µg/mL (≈ 4.41 µM); in the experiment with Escherichia coli [4], greater than 64 µg/mL. Further, the MIC in the experiment on Staphylococcus aureus [7] and in the experiment on Staphylococcus aureus [8] was 4 µg/mL (≈ 8.82 µM) throughout.

As to `Cc1onc(-c2ccccc2)c1C(=O)N[C@@H]1C(=O)N2[C@@H]1SC(C)(C)[C@@H]2C(=O)O` [OXACILLIN], the minimal inhibitory concentration (MIC) was 1 µg/mL (≈ 2.49 µM) with Staphylococcus aureus [1]; 1 µg/mL (≈ 2.49 µM) in the experiment on Staphylococcus aureus [2]; greater than 64 µg/mL in the experiment on Escherichia coli [3]; 1 µg/mL (≈ 2.49 µM) with Staphylococcus aureus [5]; greater than 64 µg/mL with Staphylococcus aureus [6]; greater than 64 µg/mL in the experiment on Escherichia coli [4]. Besides, the values for the MIC in the experiment on Staphylococcus aureus [7] and in the experiment with Staphylococcus aureus [8] were greater than 64 µg/mL and 1 µg/mL (≈ 2.49 µM), respectively.

For `N#Cc1ccc(COc2ccc3cc(/C=C4\SC(=S)N(CC(=O)O)C4=O)ccc3c2)cc1`, the MIC in the experiment on Staphylococcus aureus [1], in the experiment on Staphylococcus aureus [2], in the experiment on Escherichia coli [3] and in the experiment on Escherichia coli [4] was greater than 64 µg/mL throughout.

For the molecule `O=C(O)CN1C(=O)/C(=C/c2ccc3cc(OCc4cccc(C(F)(F)F)c4)ccc3c2)SC1=S`, the minimal inhibitory concentration (MIC) with Staphylococcus aureus [1], in the experiment on Staphylococcus aureus [2], in the experiment with Escherichia coli [3] and in the experiment with Escherichia coli [4] was greater than 64 µg/mL throughout.

Take `O=C(O)CN1C(=O)/C(=C/c2ccc3cc(OCc4ccccc4Br)ccc3c2)SC1=S`: the MIC in the experiment with Staphylococcus aureus [1], with Staphylococcus aureus [2], in the experiment with Escherichia coli [3] and in the experiment on Escherichia coli [4] was greater than 64 µg/mL throughout.

As for `CN(C)c1ccc(COc2ccc3cc(/C=C4\SC(=S)N(CC(=O)O)C4=O)ccc3c2)cc1`, the MIC with Staphylococcus aureus [1] was 64 µg/mL (≈ 134 µM); with Staphylococcus aureus [2], 64 µg/mL (≈ 134 µM); with Escherichia coli [3], greater than 64 µg/mL; in the experiment with Staphylococcus aureus [5], greater than 64 µg/mL; in the experiment on Staphylococcus aureus [6], greater than 64 µg/mL; in the experiment with Escherichia coli [4], greater than 64 µg/mL. Moreover, the MIC in the experiment on Staphylococcus aureus [7] and in the experiment with Staphylococcus aureus [8] was greater than 64 µg/mL each time.

Turning to `O=C(O)CN1C(=O)/C(=C/c2ccc3cc(OCc4ccc(Cl)cc4)ccc3c2)SC1=S`, the MIC is 4 µg/mL (≈ 8.51 µM) in the experiment on Staphylococcus aureus [1]; 2 µg/mL (≈ 4.26 µM) with Staphylococcus aureus [2]; greater than 64 µg/mL in the experiment with Escherichia coli [3]; 4 µg/mL (≈ 8.51 µM) in the experiment with Staphylococcus aureus [5]; 2 µg/mL (≈ 4.26 µM) in the experiment on Staphylococcus aureus [6]; greater than 64 µg/mL in the experiment on Escherichia coli [4]. For the same molecule, the values for the MIC with Staphylococcus aureus [7] and in the experiment with Staphylococcus aureus [8] were 2 µg/mL (≈ 4.26 µM) and 4 µg/mL (≈ 8.51 µM), respectively.

`CCn1cc(C(=O)O)c(=O)c2cc(F)c(N3CCNCC3)cc21` [NORFLOXACIN]: the MIC is 2 µg/mL (≈ 6.26 µM) in the experiment on Staphylococcus aureus [1]; 2 µg/mL (≈ 6.26 µM) with Staphylococcus aureus [2]; 16 µg/mL (≈ 50.1 µM) with Escherichia coli [3]; greater than 64 µg/mL in the experiment with Staphylococcus aureus [5]; 4 µg/mL (≈ 12.5 µM) in the experiment on Staphylococcus aureus [6]; 16 µg/mL (≈ 50.1 µM) in the experiment with Escherichia coli [4]. The MIC with Staphylococcus aureus [7] is 8 µg/mL (≈ 25.1 µM); in the experiment on Staphylococcus aureus [8], greater than 64 µg/mL.

On to `COc1ccc(COc2ccc3cc(/C=C4\SC(=S)N(CC(=O)O)C4=O)ccc3c2)cc1OC`, for which the MIC in the experiment with Staphylococcus aureus [1] is 8 µg/mL (≈ 16.1 µM); with Staphylococcus aureus [2], 4 µg/mL (≈ 8.07 µM); with Escherichia coli [3], greater than 64 µg/mL; with Staphylococcus aureus [5], 8 µg/mL (≈ 16.1 µM); with Staphylococcus aureus [6], 8 µg/mL (≈ 16.1 µM); in the experiment on Escherichia coli [4], greater than 64 µg/mL. For the same molecule, the MIC with Staphylococcus aureus [7] and with Staphylococcus aureus [8] was 8 µg/mL (≈ 16.1 µM) in each case.

On to `O=C(O)CN1C(=O)/C(=C/c2ccc3cc(OCc4ccc([N+](=O)[O-])cc4)ccc3c2)SC1=S`, for which the MIC in the experiment on Staphylococcus aureus [1] was 32 µg/mL (≈ 66.6 µM); in the experiment with Staphylococcus aureus [2], 64 µg/mL (≈ 133 µM); with Escherichia coli [3], greater than 64 µg/mL; with Staphylococcus aureus [5], 4 µg/mL (≈ 8.32 µM); in the experiment with Staphylococcus aureus [6] it was 8 µg/mL (≈ 16.6 µM); with Escherichia coli [4], greater than 64 µg/mL. In addition, the MIC with Staphylococcus aureus [7] worked out at 4 µg/mL (≈ 8.32 µM); in the experiment with Staphylococcus aureus [8], 8 µg/mL (≈ 16.6 µM).

Take `O=C(O)CN1C(=O)/C(=C/c2ccc3cc(OCc4ccc(C(F)(F)F)cc4)ccc3c2)SC1=S`: the MIC was 4 µg/mL (≈ 7.94 µM) in the experiment on Staphylococcus aureus [1]; 4 µg/mL (≈ 7.94 µM) with Staphylococcus aureus [2]; greater than 64 µg/mL with Escherichia coli [3]; 64 µg/mL (≈ 127 µM) in the experiment on Staphylococcus aureus [5]; 2 µg/mL (≈ 3.97 µM) with Staphylococcus aureus [6]; greater than 64 µg/mL with Escherichia coli [4]. The MIC stood at 2 µg/mL (≈ 3.97 µM) with Staphylococcus aureus [7] and 64 µg/mL (≈ 127 µM) with Staphylococcus aureus [8].

For the molecule `O=C(O)CN1C(=O)/C(=C/c2ccc3cc(OCc4ccc(I)cc4)ccc3c2)SC1=S`, the MIC in the experiment on Staphylococcus aureus [1], in the experiment with Staphylococcus aureus [2], in the experiment on Escherichia coli [3] and with Escherichia coli [4] was greater than 64 µg/mL each time.

For the molecule `O=C(O)CN1C(=O)CSC1=S` [RHODANINE-3-ACETIC ACID], the MIC in the experiment on Staphylococcus aureus [1], with Staphylococcus aureus [2], in the experiment on Escherichia coli [3] and in the experiment on Escherichia coli [4] was greater than 64 µg/mL each time.
